# Laboratory results taken from ChEMBL document CHEMBL1201862, “PubChem BioAssay data set” (2004).
#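 Assay format: 96-well plates, 48-hour exposure. Here, GI50 denotes the concentration required for 50% inhibition of growth.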 Activity calls are given as the source filed them. Cut-off read from the data, not from the text of the source: active = GI50 up to about 1.1 µM and inactive = higher.
# Legend:
# Experiment in all cases: NCI anticancer screen, dose series, 48 h
# SF-539 = test system: SF-539
# MDA-N = test system: MDA-N
# U-251 = test system: U-251
# 786-0 = test system: 786-0
# HL-60 = test system: HL-60
# NCI-H522 = test system: NCI-H522
# SF-295 = test system: SF-295
# Hs-578T = test system: Hs-578T
# Malme-3M = test system: Malme-3M
# OVCAR-4 = test system: OVCAR-4
# BT-549 = test system: BT-549
# TK-10 = test system: TK-10
# SN12C = test system: SN12C
# SK-MEL-5 = test system: SK-MEL-5
# HCT-15 = test system: HCT-15
# CAKI-1 = test system: CAKI-1
# NCI/ADR-RES = test system: NCI/ADR-RES
# K562 = test system: K562
# MDA-MB-231 = test system: MDA-MB-231
# PC-3 = test system: PC-3
SMILES,GI50 (SF-539),GI50 (MDA-N),GI50 (U-251),GI50 (786-0),GI50 (HL-60),GI50 (NCI-H522),GI50 (SF-295),GI50 (Hs-578T),GI50 (Malme-3M),GI50 (OVCAR-4),GI50 (BT-549),GI50 (TK-10),GI50 (SN12C),GI50 (SK-MEL-5),GI50 (HCT-15) [µM],GI50 (CAKI-1),GI50 (NCI/ADR-RES),GI50 (K562),GI50 (MDA-MB-231),GI50 (PC-3)
Cc1cc(C)nc(NS(=O)(=O)c2ccc(NN=c3c4ccccc4n(C)c4ccccc34)cc2)n1,44.4 µM (inactive),22.2 µM (inactive),34.5 µM (inactive),30.2 µM (inactive),28.9 µM (inactive),13.8 µM (inactive),44.7 µM (inactive),32.4 µM (inactive),35.6 µM (inactive),23.6 µM (inactive),8.95 µM (inactive),28.6 µM (inactive),42.8 µM (inactive),17.2 µM (inactive),32.7,21.5 µM (inactive),38.2 µM (inactive),16.7 µM (inactive),21.3 µM (inactive),22 µM (inactive)
C[C@@H]1CCC2[C@@H](C)[C@@H](OCCO[C@H]3OC4O[C@@]5(C)CCC6[C@H](C)CCC([C@H]3C)[C@@]46OO5)OC3O[C@@]4(C)CCC1[C@]32OO4 (stereo not given in full),0.202 µM (active),0.219 µM (active),0.0902 µM (active),0.361 µM (active),0.0583 µM (active),0.0689 µM (active),0.405 µM (active),0.211 µM (active),0.182 µM (active),0.0361 µM (active),0.883 µM (active),0.206 µM (active),0.541 µM (active),0.301 µM (active),0.0238,0.0652 µM (active),0.241 µM (active),0.0212 µM (active),2.21 µM (inactive),0.0174 µM (active)
CCOC(=O)C(Cc1ccc(OC(=O)c2ccc(OC)cc2)cc1)NC(=O)C(F)(F)F (stereo not given),> 100 µM (inactive),> 100 µM (inactive),69.3 µM (inactive),> 100 µM (inactive),> 100 µM (inactive),> 100 µM (inactive),80.7 µM (inactive),> 100 µM (inactive),> 100 µM (inactive),87.7 µM (inactive),> 100 µM (inactive),> 100 µM (inactive),> 100 µM (inactive),> 100 µM (inactive),> 100,> 100 µM (inactive),> 100 µM (inactive),> 100 µM (inactive),77.6 µM (inactive),> 100 µM (inactive)
CCS(=O)(=O)CCn1c(=O)c2c(ncn2C)n(C)c1=O,> 100 µM (inactive),> 100 µM (inactive),> 100 µM (inactive),> 100 µM (inactive),> 100 µM (inactive),> 100 µM (inactive),> 100 µM (inactive),> 100 µM (inactive),> 100 µM (inactive),> 100 µM (inactive),> 100 µM (inactive),> 100 µM (inactive),> 100 µM (inactive),> 100 µM (inactive),> 100,> 100 µM (inactive),> 100 µM (inactive),> 100 µM (inactive),> 100 µM (inactive),> 100 µM (inactive)
CC[C@@]1(OC(=O)CCC(=O)O)C(=O)OCc2c1cc1n(c2=O)Cc2cc3ccccc3nc2-1,0.0281 µM (active),1.09 µM (active),0.0303 µM (active),0.0263 µM (active),0.0313 µM (active),0.103 µM (active),0.0251 µM (active),14.6 µM (inactive),0.467 µM (active),1.46 µM (inactive),0.484 µM (active),3.65 µM (inactive),0.0333 µM (active),0.127 µM (active),0.472,0.0309 µM (active),0.0383 µM (active),0.36 µM (active),3.86 µM (inactive),0.239 µM (active)
O=[N+]([O-])c1oc2ccc3ccccc3c2c1CCO,3.28 µM (inactive),1.77 µM (inactive),9.44 µM (inactive),5.27 µM (inactive),1.74 µM (inactive),1.63 µM (inactive),1.57 µM (inactive),5.22 µM (inactive),1.78 µM (inactive),3.18 µM (inactive),2.29 µM (inactive),4.97 µM (inactive),6.21 µM (inactive),0.546 µM (active),3.56,2.25 µM (inactive),4.79 µM (inactive),1.96 µM (inactive),11.1 µM (inactive),13.1 µM (inactive)
C=C1[C@H](OCC(C)C)[C@@H](O)[C@@H](OC(=O)c2cccnc2)C(C)(C)/C=C/[C@H](C)[C@H](OC(C)=O)[C@@]2(O)C[C@@](C)(OC(C)=O)[C@H](OC(=O)c3ccccc3)[C@@H]2[C@H]1OC(C)=O,0.482 µM (active),0.451 µM (active),1.34 µM (inactive),1.67 µM (inactive),0.0695 µM (active),0.944 µM (active),0.371 µM (active),0.0895 µM (active),0.187 µM (active),1.9 µM (inactive),1.66 µM (inactive),1.07 µM (active),> 3.1 µM (inactive),0.332 µM (active),1.16,0.488 µM (active),1.29 µM (inactive),0.0585 µM (active),> 2.54 µM (inactive),1.66 µM (inactive)
